US20260083704A1, “LXR MODULATORS WITH BICYCLIC CORE MOIETY FOR TREATING DYSLIPIDEMIAS” (OrsoBio, Inc., priority 2022, published 2026)
Where two headings read alike, the source gives them in different places.

How the values were obtained:
[1] = Phase 1 study, SAD cohorts: plasma pharmacokinetics; type: in vivo, human; conditions: for AUC(0-inf) / Cmax / Tmax / half-life: both sexes, human, oral, plasma
Method: A double-blind, placebo-controlled, single- and multiple-ascending dose FIH Phase 1 study to evaluate the safety, tolerability, PK, and PD of Compound 21/3 in healthy adult subjects was performed. A total of up to 150 subjects were enrolled, including 100 subjects in Parts A and B, and up to 50 subjects in adaptive cohorts in Part C. Within each cohort, 10 subjects were randomized, including 8 subjects randomized to Compound 21/3 and 2 subjects to PTM (placebo-to-match). In single-dose cohorts in Parts A and in any Part C cohort evaluating a higher total daily dose than previously evaluated, safety and tolerability data collected through Day 2 from two sentinel subjects, one randomized to Compound 21/3 and one to PTM, were evaluated prior to dosing of the remaining subjects in each cohort.
Intensive PK sampling over 72 h postdose on Day 1 (SAD and MAD) and Day 14 (MAD) was performed. Compound 21/3 plasma concentrations were determined using validated liquid chromatography-tandem mass spectrometry assay. PK parameters were estimated via noncompartmental methods using Pheonix® WinNonlin® 6.2.1 and 8.3.4 (Certara, LP, Princeton, NJ).
Part A evaluated the safety, tolerability, PK, and PD of single-ascending doses of oral Compound 21/3 or placebo under fed conditions. Part A proceeded in up to 5 dose-escalation cohorts and governed by a review of safety, tolerability, and any available and relevant PK and/or PD data, and study-specific stopping criteria.

[2] = Plasma and liver exposures in mice dosed 1 mg/kg by oral gavage; type: in vivo; conditions: 1 mg/kg oral gavage
Method: Data are shown as mean±SD. N=3-8 wells per treatment.
The efficacy of Compound 21/3 and Compound pre-6/3 were evaluated in diet-induced obese (DIO) mouse and rat models.

HFD-fed ZDF rats = assay: HFD-fed Zucker diabetic fatty (ZDF) rat model; type: in vivo
Text: Data are shown as mean±SD. N=5-8 animals per group. *p≤0.05, **p≤0.01, ***p≤0.001, ****p≤0.0001 vs. vehicle, unless otherwise indicated; ^#p≤0.05 pioglitazone vs. vehicle Kruskal-Wallis (non-parametric One-Way ANOVA) test with Dunn's multiple comparisons test (FIG. 4A, FIG. 4B, FIG. 4D), repeated measures two-way ANOVA with Dunnett's multiple comparisons test (FIG. 4C), two-way ANOVA with Sidak's multiple comparisons test (FIG. 4E), Mann-Whitney test (FIG. 4F-G).
Data are shown as mean±SD. N=5-8 animals per group. *p≤0.05, **p≤0.01, ***p≤0.001, ****p≤0.0001 vs. vehicle, unless otherwise indicated; ^#p≤0.05 pioglitazone vs. vehicle repeated measures two-way ANOVA with Dunnett's multiple comparisons test (FIG. 5A, FIG. 5C, FIG. 5D), Kruskal-Wallis (non-parametric one-way ANOVA) test with Dunn's multiple comparisons test (FIG. 5B, FIG. 5E).
The efficacy of Compound 21/3 was evaluated in three dysmetabolic rodent models including DIO mice, HFD-fed ZDF rats, and HFD-fed SD rats (FIG. 4 and FIG. 5). Briefly, DIO mice were fed a HFD (60% kcal from fat) for 14 weeks and treated with Compound 21/3 (0.3 and 1 mg/kg once daily by oral gavage) for three weeks, […]

DIO mice = assay: Two-step hyperinsulinemic-euglycemic clamp in DIO mice; type: in vivo; conditions: 5 mg/kg once daily oral
Text: Data are shown as mean±SD. N=5-11 animals per group. *p≤0.05, **p≤0.01, ***p≤0.001, ****p≤0.0001 vs. vehicle, unless otherwise indicated; ^#p≤0.05 pioglitazone vs. vehicle. Repeated measures Two-way ANOVA with Dunnett's multiple comparisons test (FIG. 7A, FIG. 7D), Two-way ANOVA with Dunnett's multiple comparisons test (FIG. 7B, FIG. 7C). EDL=extensor digitorum longus, GIR=glucose infusion rate, HGP=hepatic glucose production, iWAT=inguinal white adipose tissue.
The effects of chronic dosing of Compound 21/3 and Compound pre-6/3 were evaluated in DIO mice and HFD-fed ZDF rats, respectively. Briefly, C57BL/6 mice were fed a HFD for 16 weeks prior to treatment with Compound pre-6/3 (5 mg/kg) or pioglitazone (30 mg/kg; positive control) once daily by oral gavage. After four weeks of treatment, a two-step hyperinsulinemic-euglycemic clamp along with the infusion of radiotracers to monitor glucose disposal and hepatic glucose production was performed. […] These changes were associated with a reduction in hepatic glucose production in the Compound pre-6/3-treated mice, more evident during the 8 mU/kg/min insulin infusion (FIG. 7B).

`N#Cc1cccc(C#N)c1-c1c(-c2cccc(-c3ccc(C(=O)NCC(=O)O)cc3Cl)c2)n(S(=O)(=O)c2ccc(C(F)F)cc2)c2ccc(F)cc12` [Compound 21/3] gave an AUC(0-inf) ([1]; Day 1, 0.5 mg, mean) of 1.2 ng·h/mL, a Cmax ([1]; Day 1, 0.5 mg, mean, read-out: Cmax) of 0.37 ng/mL and a Tmax ([1]; Day 1, 0.5 mg, median) of 3.5 h. The half-life ([1]; Day 1, 0.5 mg, median) was 2.1 h, the AUC(0-inf) ([1]; Day 1, 2 mg, mean) was 8.5 ng·h/mL and the Cmax ([1]; Day 1, 2 mg, mean, read-out: Cmax) was 0.54 ng/mL. It also gave a Tmax ([1]; Day 1, 2 mg, median) of 3.75 h, a half-life ([1]; Day 1, 2 mg, median) of 4.96 h and an AUC(0-inf) ([1]; Day 1, 6 mg, mean) of 10 ng·h/mL. For the same compound, the Cmax ([1]; Day 1, 6 mg, mean, read-out: Cmax) was 3.33 ng/mL, the Tmax ([1]; Day 1, 6 mg, median) was 4 h and the half-life ([1]; Day 1, 6 mg, median) was 1.37 h. It also gave an AUC(0-inf) ([1]; Day 1, 12 mg, mean) of 17.1 ng·h/mL, a Cmax ([1]; Day 1, 12 mg, mean, read-out: Cmax) of 4.69 ng/mL and a Tmax ([1]; Day 1, 12 mg, median) of 3 h. It also gave a half-life ([1]; Day 1, 12 mg, median) of 2.02 h, an AUC(0-inf) ([1]; Day 1, 20 mg, mean) of 20.6 ng·h/mL and a Cmax ([1]; Day 1, 20 mg, mean, read-out: Cmax) of 6.79 ng/mL. The Tmax ([1]; Day 1, 20 mg, median) was 2.5 h, the half-life ([1]; Day 1, 20 mg, median) was 2.36 h and the half-life ([1]; healthy subjects) was 2 to 3 h. For the same compound, the Tmax ([1]; healthy subjects, postdose) was 3 to 4 h, the Cmax ([1]; healthy subjects, read-out: maximal plasma concentrations (Cmax)) was under 7 ng/mL and the “dose proportionality of plasma exposure” value ([1]; healthy subjects) was “less than dose-proportional increases”. The “liver exposures compared with Compound pre-6/3” value [2] was “higher and sustained liver exposures”, the “plasma exposures compared with Compound pre-6/3” value [2] was “lower plasma exposures” and the “hepatic expression and plasma levels of ANGPTL3” value (HFD-fed ZDF rats; 15 mg/kg once daily oral) was “reduced”. The “immunostaining of pancreatic sections for insulin relative to vehicle” value (HFD-fed ZDF rats; 15 mg/kg once daily oral, 5 weeks) was “more prominent staining for insulin”, the “glucose tolerance (oral glucose tolerance test)” value (HFD-fed ZDF rats; 15 mg/kg once daily oral, after 4 weeks of dosing) was “significantly improved” and the “liver expression of DNL genes (Srebp1c, Fasn, Acaca, Scd1)” value (HFD-fed ZDF rats; 0.1 and 1 mg/kg once daily oral) was “dose-dependently reduced”. The “reduction of plasma TG compared with vehicle” value (HFD-fed ZDF rats; highest dose 1 mg/kg, p≤0.05) was 96%, the “maximal reduction of liver TG versus vehicle” value (HFD-fed ZDF rats; p≤0.01) was 49% and the “reduction of plasma total cholesterol (TC) at end of treatment compared with vehicle” value (HFD-fed ZDF rats; p≤0.05) was 67%.

With `N#Cc1cccc(C#N)c1-c1c(-c2cccc(-c3ccc(C(=O)O)cc3Cl)c2)n(S(=O)(=O)c2ccc(C(F)F)cc2)c2ccc(F)cc12` [pre-6/3] the “hepatic expression of Angptl3, Angptl4, Angptl8, ApoC1, ApoC2, ApoC3” value (HFD-fed ZDF rats; 5 mg/kg once daily oral) was “suppressed”, the “glucose utilization by muscle versus vehicle” value (DIO mice; end of the clamp) was “significantly higher” and the “glucose infusion rate versus vehicle” value (DIO mice; four weeks, insulin infusion 8 and 18 mU/kg/min) was “significantly higher”. The hepatic glucose production (DIO mice; four weeks, more evident at 8 mU/kg/min) was “reduction”.
